Measurements: patent US20100204343A1, “3-(4-HYDROXY-3-METHOXYPHENYL)-1-(4-HYDROXYPHENYL)-1-PROPANONE AND ITS USE AS ANTIOXIDANT” (SYMRISE GmbH & Co. KG, priority 2007, published 2010)
Converted amounts (≈) assume the structure as drawn.

Key:
[1] = ABTS assay, antioxidant capacity (cell free in vitro test); type: biochemical; conditions: ABTS discolouration measured photometrically at 734 nm; 96-well plates, 5 concentrations
Procedure: The antioxidant capacity of 3-(4-hydroxy-3-methoxyphenyl)-1-(4-hydroxyphenyl)-1-propanone of formula (I) disclosed here was evaluated with the ABTS assay, a cell free in vitro test. The assay principle bases on the chemical reduction being accompanied by discolouration of the green coloured cationic radical 2,2′-Azinobis(3-ethylbenzothiazoline 6-sulfonic acid) (ABTS^+) by antioxidants. The grade of discolouration can be measured photometrically at 734 nm. The compound of formula (I) as well as standard antioxidants like Trolox, a water soluble alpha-tocopherol analog and green tea extract were tested on 96-well microtiter plates at 5 concentrations. Each concentration was tested in double in two independent experiments. IC50 values for the compound of formula (I) as well as for the comparative examples are depicted in table 1.
Therefore, the compound of formula (I) is a highly suitable new product either to protect biological systems from damage caused by free radicals of different type and origin or to extend the shelf life of products comprising highly unstable, easily oxidising molecules.

Stability studies = type: physicochemical; conditions: in contrast to common antioxidants like Trolox, alpha-tocopherol or green tea extract

SMILES	IC50 [1]	stability (Stability studies)
Cc1c(C)c2c(c(C)c1O)CCC(C)(C(=O)O)O2 (stereo not drawn) [Trolox, 6-hydroxy-2,5,7,8-tetramethylchroman-2-carboxylic acid, reference compound]	6 µg/mL (≈ 24 µM)	
COc1cc(CCC(=O)c2ccc(O)cc2)ccc1O [3-(4-hydroxy-3-methoxyphenyl)-1-(4-hydroxyphenyl)-1-propanone]	5 µg/mL (≈ 18.4 µM)	highly stable
